Reference: PubChem BioAssay AID1361 (SRMLSC, 2008)
Calls of active or inactive are those of the source. How the calls were made is not given here.

Assay: blockers of mitochondrial fusion, WT vs mutant – cell-based, chemical genetic, wild-type and mutant, confirmation (AID 1361)
Settings: Cell-based mitochondrial fusion phenotype, imaging
[1] = mutant cells, measured here: mutant cell line IC50

Row | SMILES | IC50 (WT cells) | IC50 [1] [µM]
1 | CCOc1ccc(C(=O)C(CCC(CN(C)C)C(=O)c2ccc(OCC)cc2)CN(C)C)cc1 (stereo not drawn) | 20.4 µM | > 25
2 | C=CCN1C(=O)C(CC(=O)Nc2ccc(OCCC)cc2)N(CCCN2CCN(Cc3ccccc3)CC2)C1=S (stereo not drawn) | > 25 µM (inactive) | > 25
3 | Cc1ccc(C)c(NC(=O)c2ccccc2C(=O)c2ccccc2)c1 | 18.2 µM | > 25
4 | FC(F)(F)c1cc(-c2ccccc2)nc(NCc2cccs2)n1 | 18.8 µM | > 25
5 | CCOC(=O)c1cc(-c2ccc3c(c2)OCO3)nc2onc(C)c12 | > 25 µM (inactive) | > 25
6 | Cc1nnc(SCC(=O)N2c3ccccc3C(C)(c3ccc(Cl)cc3)CC2(C)C)s1 (stereo not drawn) | 5.21 µM | > 25
7 | CCNc1nc(SCCOc2ccc(Cl)cc2Cl)nc(N(C)C)n1 | 8.3 µM | 23.8
8 | COc1ccccc1-c1cc(C(F)(F)F)nc(NCc2cccs2)n1 | 11.2 µM | > 25
9 | Cc1nn(-c2ccccc2)c(C)c1NC(=O)c1ccc(S(=O)(=O)N2CCCC2)cc1 | > 25 µM (inactive) | > 25
10 | CN1/C(=C\C(=O)Nc2ccc(Br)cc2)C(C)(C)c2ccccc21 | 5.66 µM | 16.7
11 | CCOC(=O)c1cc2c(ccn2C)n1Cc1cc(C)ccc1C | 25 µM (inactive) | > 25
12 | Cc1cc(Cl)ccc1OCC(=O)Nc1nc(-c2cccs2)cs1 | 13.4 µM (inactive) | 9.8
13 | CCN1CCN(c2ccc(NC(=O)c3ccc4c(c3)OCO4)cc2)CC1 | > 25 µM (inactive) | > 25
14 | O=C(NCc1ccco1)c1cc(-c2ccccc2)on1 | > 25 µM (inactive) | > 25
15 | O=C(CCN1C(=O)/C(=C/c2cccs2)SC1=S)NC1=NCCS1 | 12.5 µM | > 25
16 | Cc1ccc(NNC(=S)Nc2ccc(C(C)C)cc2)c(C)c1 | 15.3 µM | > 25
17 | Cc1cc(N=Cc2cc(Cl)ccc2O)no1 | > 25 µM (inactive) | > 25
18 | Cc1ccccc1NS(=O)(=O)c1cc(C(=O)N2CCc3ccccc3C2)ccc1C | > 25 µM (inactive) | > 25
19 | Cc1cc(NC(=S)N(Cc2cccc(Br)c2)CC2CCC(C(=O)O)CC2)ccc1Cl (stereo not drawn) | 21.9 µM | > 25
20 | COc1ccc(-c2nc3ccccc3s2)cc1O | > 25 µM (inactive) | > 25

Row | SMILES | IC50 (WT cells) | IC50 [1] [µM]
21 | O=C(CNC(=S)N(Cc1ccccc1)Cc1cccs1)NCc1ccc(F)cc1 | > 25 µM (inactive) | > 25
22 | N/C(Cc1ccccc1)=N\OC(=O)c1cccc2ccccc12 | 14.8 µM (inactive) | 14.6
23 | O=C(N/C=N/OCc1ccc(Cl)cc1Cl)NOCc1ncc(C(F)(F)F)cc1Cl | 16 µM | > 25
24 | Cc1nn(C(C)(C)C)c(OC(=O)c2cccs2)c1Sc1ccccc1 | 22.1 µM | > 25
25 | CCOC(=O)c1oc2cccc(OCC(O)CNC(C)C)c2c1C (stereo not drawn) | > 25 µM (inactive) | > 25
26 | Fc1ccccc1Nc1nc2c(s1)CCc1ccccc1-2 | 17.7 µM | 19.1
27 | Cc1ccc(-n2c(-c3ccccc3)cc(/C=N/NC(=O)CC#N)c2-c2ccccc2)cc1 | > 25 µM (inactive) | > 25
28 | Fc1ccc(N2CCN(c3nc(CN4CCOCC4)nc4scc(-c5ccccc5)c34)CC2)cc1 | 19.6 µM | 24
29 | CCCCSc1cnn(-c2ccccc2)c(=O)c1SCCCC | 12.7 µM | > 25
30 | O=[N+]([O-])c1ccccc1/C=N/n1c(C2CCCCC2)n[nH]c1=S | > 25 µM (inactive) | > 25
31 | CCOC(=O)c1[nH]c2ccc(OC)cc2c1NC(=O)C(C)N1CCC2(CC1)OCCO2 (stereo not drawn) | > 25 µM (inactive) | > 25
32 | CCN(Cc1cc2cc(C)ccc2[nH]c1=O)C(=O)c1cccc(OC)c1 | > 25 µM (inactive) | > 25
33 | Cc1ccc(NC(=S)N(Cc2cccc(Br)c2)CC2CCC(C(=O)O)CC2)cc1Cl (stereo not drawn) | 21.8 µM | > 25
34 | CCCCN1C(=O)NC(=O)C2(Cc3c(nc4c(C)cccn4c3=O)N3CCc4ccccc4C32)C1=O (stereo not drawn) | 11.9 µM | > 25
35 | CCCCOC(=O)c1ccc(NC(=O)c2ccccc2OC)cc1 | > 25 µM (inactive) | > 25
36 | Cc1cc(-c2ccccc2)nc2cc(C(=O)N(Cc3ccccc3)Cc3ccccc3)nn12 | 8.35 µM | > 25
37 | C[C@]1(C(=O)NCCCNc2ncc(C(F)(F)F)cc2Cl)C=C[C@@H](Cc2ccccc2)N1C(=O)c1ccccc1 | 11.9 µM | > 25
38 | COc1cccc2cc(C(=O)N3CCc4ccccc43)c(=O)oc12 | > 25 µM (inactive) | > 25
39 | Cc1ccc2c(N)c(C#N)sc2n1 | > 25 µM (inactive) | > 25
40 | CCN=c1scc(-c2ccco2)n1/N=C/c1ccc(OC)c(O)c1 | > 25 µM (inactive) | > 25

Row | SMILES | IC50 (WT cells) | IC50 [1] [µM]
41 | O=C(COC(=O)c1ccccn1)Nc1cccc(Cl)c1Cl | > 25 µM (inactive) | > 25
42 | CCOC(=O)c1c(-c2ccc(OC)cc2)csc1/N=C/C1=C(O)CCCC1=O | > 25 µM (inactive) | > 25
43 | CCn1c(CNC(=O)c2ccco2)nnc1SCC(=O)Nc1cc(C(F)(F)F)ccc1Cl | > 25 µM (inactive) | > 25
44 | Cc1cc(NCCCn2ccnc2)n2ncc(-c3ccc(Cl)cc3)c2n1 | 11.1 µM | 17.9
45 | Cc1ccc(SCC(=O)O/N=C(\N)c2cccc([N+](=O)[O-])c2)cc1 | > 25 µM (inactive) | > 25
46 | CCOC(=O)CSc1n[nH]c(-c2cccnc2)n1 | > 25 µM (inactive) | > 25
47 | O=C(c1ccccc1)c1nnc(-c2ccncc2)o1 | > 25 µM (inactive) | > 25
48 | O=c1[nH][nH]c(-c2ccccc2)c1C=Nc1ccccc1 | > 25 µM (inactive) | > 25
49 | O=C(NC(Cc1c[nH]c2ccccc12)C(=O)Nc1ccc(OC(F)(F)F)cc1)c1cccs1 (stereo not drawn) | > 25 µM (inactive) | > 25
50 | CCC(=O)N1CCN(c2ccccc2NC(=O)COc2cc(C)ccc2C(C)C)CC1 | > 25 µM (inactive) | > 25
51 | CN1CCN(CCCNC(=O)c2ccc(/C=C3/Sc4ccccc4N(Cc4cccc(Cl)c4)C3=O)cc2)CC1 | 12.1 µM | > 12.5
52 | COc1ccc(NS(=O)(=O)c2ccc3oc(Nc4ccc5c(c4)OCCO5)nc3c2)cc1 | 17.6 µM | > 25
53 | COCCN1C(=O)/C(=C/c2ccc(OCc3ccc(C(=O)O)cc3)c(OC)c2)SC1=Nc1ccccc1 | > 25 µM (inactive) | > 25
54 | COc1ccc(/C=C/c2nc3cc(-c4ccccc4)ccc3o2)cc1O | 11.6 µM | > 25
55 | COc1cccc(-c2nc(OC(C)C)c3ccccc3n2)c1 | > 25 µM (inactive) | > 25
56 | CCOC(=O)c1c(NC(=O)CN2CCN(C(=O)c3ccco3)CC2)sc2c1CCCC2 | 23.2 µM | > 25
57 | O=C(NC1CCS(=O)(=O)C1)c1ccc(-c2ccc(Br)cc2)o1 (stereo not drawn) | > 25 µM (inactive) | > 25
58 | Oc1ccccc1-c1nc(/C=C/c2ccccc2)nn1-c1ccccc1 | 11.2 µM | 15.4
59 | Cc1ccc(SC(C)C(=O)Nc2ccccc2-c2ccccc2)cc1 (stereo not drawn) | 19.8 µM | > 25
